What was measured:
[1] = Human microsomal stability assay; type: in vitro ADME; conditions: liver microsomes, 0.5 mg microsomal protein/ml, 10 μM compound, 37° C., read-out: Human liver microsome clearance
Description: Compound stability towards human liver microsomes was determined as follows: Human liver microsomal suspension (1 ml) prepared in reaction buffer at a concentration of 0.5 mg microsomal protein/ml was preincubated for 3 min at 37° C. with a NADPH-generating system (10 mM glucose 6-phosphate, 1 mM NADP+, and 1 unit/ml yeast glucose-6-phosphate dehydrogenase). The final compounds concentration is 10 μM. Boiled microsomes (5 min) served as a control. Samples (50 μl) were then taken after 0, 5, 15, 30, 45, 120 min, into 200 μl acetonitrile, centrifuged for 15 min at 8000×g to remove the protein pellet. Samples were analyzed for parent compound by HPLC. Method development: All samples for metabolic stability experiments were analyzed by HPLC. Only parent compounds were analyzed. Data analysis: The percentages of the parent compounds remaining was defined as the ratio of the parent compounds peak area at a specific point and the peak area at the first time point multiplied by 100%. The metabolic stability was evaluated by plotting the natural logarithm of the percentage parent compounds remaining versus time and performing linear regression and finally reported as clearance [μl/min/mg protein] which is reversed proportional to compound stability. Applying this protocol, Microsomal stability of examples and reference compounds was determined. (Table 7)

[2] = Rat microsomal stability assay; type: in vitro ADME; conditions: liver microsomes, 37° C., NADPH, 45 minute, read-out: Rat liver microsome clearance
Description: Compound stability towards rat liver microsomes was determined as follows: The microsomes are incubated with the test compound at 37° C. in the presence of the co-factor, NADPH, which initiates the reaction. The reaction is terminated by the addition of methanol. Following centrifugation, the supernatant is analysed on the LC-MS/MS. The disappearance of test compound is monitored over a 45 minute time period. The In peak area ratio (compound peak area/internal standard peak area) is plotted against time and the gradient of the line determined. Finally, Intrinsic clearance CLint is computed by the following equations: elimination rate konstant (k)=−gradient; t1/2 (min)=0.693/k; V (μl/mg)=volume of incubation (μl)/protein in incubation (mg); CLint (μl/min/mg protein)=V*0.693/t1/2.

[3] = Rat hepatocyte stability assay; type: in vitro ADME; conditions: hepatocytes, 37° C., 60 minute, read-out: Rat hepatocyte clearance
Description: Compound stability towards rat hepatocytes was determined as follows: The hepatocytes are incubated with the test compound at 37° C. Samples are removed at the appropriate time points into methanol to terminate the reaction. Following centrifugation, the supernatant is analysed by LC-MS/MS. The disappearance of test compound is monitored over a 60 minute time period. The In peak area ratio (compound peak area/internal standard peak area) is plotted against time and the gradient of the line determined. Finally, half life t1/2 and Intrinsic clearance CLint is computed by the following equations: elimination rate konstant (k)=−gradient; t1/2 (min)=0.693/k; V (μl/10^6 cells)=volume of incubation (μl)/number of cells (*10^6); CLint (μl/min/10^6cells protein)=V*0.693/t1/2.

[4] = Pharmacokinetic parameters in C57BL/6 mice (plasma concentration after peroral gavage); type: in vivo; conditions: mouse, oral, perorally by gavage 10 mg/kg, male C57BL/6 mice, read-out: mean plasma conc.
Description: (§1) Information on the rate and extent of absorption of the test compounds were generated using two distinct animal models, C57/BI/6J and C57/BLKS/J(mLepr^db/db) mice. Compounds were applied perorally by gavage at 10 mg/kg each to male 8 weeks old C57BL/6 mice and plasma concentrations of the test items were determined by LC-MS/MS (Table 11). Alternatively, compounds were applied perorally by gavage at 25 mg/kg each to 16 weeks old male C57/BLKS/J(mLepr^db/db) mice and plasma concentrations of the test items were determined 120 min after gavage by LC-MS/MS (Table 12).
(§2) A solution of 20 mg/ml of each test item was produced by diluting them in the vehicle, 30% HPBCD (hydroxypropyl-beta-cyclodextrin) in 20 mM phosphate buffer pH7.0 (v/w). These solutions were stirred overnight at room temperature and heated to 60° C. for 10 minutes, resulting in a full solubilization. The application was performed by administrating the solution perorally to the mice, with an application volume of 10 ml/kg. For each time point five mice were used. Blood samples were obtained by sacrificing animals for each time point followed by cardiac puncture. Blood samples were treated with Li-heparin during collection procedure and stored on ice until centrifugation at 645 g (5 min, 4° C.). Plasma was harvested and kept at −20° C. until being assayed. To 50 μl of mouse plasma sample 6 μl acetonitrile containing an internal standard was added. Samples were vigorously shaken and centrifuged for 10 minutes at 6000 g and 20° C. An aliquot of the particle-free supernatant was transferred to 200 μl sampler vials and subsequently subjected to LC MS/MS for quantification.

[5] = Pharmacokinetic parameters in C57/BLKS/J(mLepr^db/db) mice (plasma concentration after peroral gavage); type: in vivo; conditions: mouse, oral, perorally by gavage 25 mg/kg, male C57/BLKS/J(mLepr^db/db) mice, read-out: mean plasma conc.
Description: as §1
as §2, with “Blood samples were treated with Li-heparin during collection procedure and stored on ice until centrifugation at 645 g (5 min, 4° C.). Plasma was harvested and kept at −20° C. until being assayed. To 50 μl of mouse plasma sample 6 μl acetonitrile containing an internal standard was added. Samples were vigorously shaken and centrifuged for 10 minutes at 6000 g and 20° C.” left out

Caco-2 permeability = type: in vitro ADME; conditions: human, apical to basolateral
Description: Caco-2 cells are widely used as an in vitro model for predicting human drug absorption. The Caco-2 cell line is derived from a human colorectal carcinoma, and when cultured, the cells spontaneously differentiate into monolayers of polarised enterocytes. The cells are seeded on Transwell™ plates and form a confluent monolayer over 20 days prior to the experiment. On day 20, the test compound is added to the apical side of the membrane and the transport of the compound across the monolayer is monitored over a 2 hour time period. To study drug efflux, it is also necessary to investigate transport of the compound from the basolateral compartment to the apical compartment. The permeability coefficient (Papp) is calculated from the following equation: […]
Where dQ/dt is the rate of permeation of the drug across the cells, CO is the donor compartment concentration at time zero and A is the area of the cell monolayer.

[6] = Plasma protein binding assay (equilibrium dialysis); type: in vitro ADME; conditions: 37° C., extrapolated fraction unbound
Description: Equilibrium dialysis is used to determine the extent of binding of a compound to plasma proteins. A semi-permeable membrane separates a protein-containing compartment from a protein-free compartment. The system is allowed to equilibrate at 37° C. The test compound present in each compartment is quantified by LC-MS/MS. The extent of binding is reported as a fraction unbound (fu) value which is calculated as fu=1−(PC−PF)/PC. PC=Test compound concentration in protein-containing compartment. PF=Test compound concentration in protein-free compartment. In addition to using whole plasma, the plasma protein binding assay can be performed using two other ratios of plasma (10% or 50% plasma in buffer v/v). The following equations are used to convert from a fraction unbound at 10% or 50% to a fraction unbound at 100%: […]

microsomal CLint at 10 μM [1] [µL/min/mg] | microsomal CLint [2] [µL/min/mg] | hepatocyte CLint [3] [µL/min/1e6 cells] | concentration at 15 min [4] [ng/mL] | concentration at 45 min [4] [ng/mL] | concentration at 120 min [5] [ng/mL] | Papp A→B at 2 h (Caco-2 permeability) [×10⁻⁶ cm/s] | fraction unbound [6] | SMILES
100 | 310 | 45 | 1600 | 1650 | 164 | – | – | CC(C)c1onc(-c2c(Cl)cccc2Cl)c1COc1ccc(/C=C/c2cccc(C(=O)O)c2)c(Cl)c1 [Compound B, reference compound]
62 | – | 7.1 | – | – | – | 30 | 0.0003 | Cc1nc(OCc2c(-c3c(Cl)cccc3Cl)noc2C(C)C)ccc1N(C)S(=O)(=O)c1ccc(C(=O)O)cc1 [Example 4, 4-(N-(6-((3-(2,6-dichlorophenyl)-5-isopropylisoxazol-4-yl)methoxy)-2-methylpyridin-3-yl)—N-methylsulfamoyl)benzoic acid]
14 | 45 | 0.7 | – | – | – | 32 | 0.005 | CC(C)c1onc(-c2c(Cl)cccc2Cl)c1COc1ccc(N(C)C(=O)c2ccc(C(=O)O)cc2)c(C(F)(F)F)n1 [Example 7, N-{6-[3-(2,6-dichloro-phenyl)-5-isopropyl-isoxazol-4-ylmethoxy]-2-trifluoromethyl-pyridin-3-yl}-N-methyl-terephthalamic acid]
– | – | – | 1780 | 2230 | 287 | – | – | CC(C)c1onc(-c2c(Cl)cccc2Cl)c1COc1ccc(N(C)Cc2ccc(C(=O)O)cc2)c(C(F)(F)F)n1 [Example 28, 4(((6-((3-(2,6-Dichlorophenyl)-5-isopropylisoxazol-4-yl)methoxy)-2-(trifluoromethyl)pyridin-3-yl)(methyl)amino)methyl)benzoic acid]

— US20100184809A1, “Heterocyclic FXR Binding Compounds” (PHENEX PHARMACEUTICALS AG, priority 2006, published 2010)
